Read-outs that look alike come from different tables or passages of the source.
Legend:
[1] = test system: right ventricle of guinea pigs; assay: heart function dP/dtmax, right ventricle of anesthetized guinea pigs; assay type: in vivo, guinea pig
Description: The effect of the substances on the contractility of the heart of guinea pigs is tested on animals (.male., 400 to 1000 g) under urethane anesthesia. The change in pressure in the right ventricle of the heart is measured with a tip catheter introduced through the right jugular vein and the maximum rate of pressure rise (dP/dtmax) is determined from this. The heart rate is derived from the pressure waves. […] The test substances were administered intravenously. 5-7 animals were used for each measurement, and the arithmetic mean was calculated from the results.

[2] = test system: electrically stimulated left atrium of rats; assay: positive inotropic action on electrically stimulated left atrium in vitro; set-up: species or system rat; conditions: for [EC40 pot.] theophylline / [EC40 pot.] substance: Column E, left atrium; for EC40: Rattus norvegicus, Column B, negative logarithm of EC40pot in mol/l, 40% increase in contraction force, read-out: -lg[EC40 pot.] left atrium (converted)
Description: The positive inotropic action was tested in vitro on the electrically stimulated left atrium of rats (l.a.).
The positive inotropic action of the compounds was tested in vitro on the electrically stimulated left atrium of rats.
Isometric contractions (HSE force sensor K-30; Watanabe recorder, Linear Corder Mark 5) of isolated, left atria from rats (.male., 250-300 g) in an organ bath (10 ml, Tyrode nutrient solution, 31° C., gassing with carbogen, initial tension of the organs 0.25 g) under electrical stimulation (HSE stimulator, 7 V, 3 ms, 2 Hz) were recorded. […] The particular increase in the contraction force is expressed in % of the starting value before administration of the substance. The concentration of the test substance which potentiates the contraction force of the atrium by 40% compared with the starting value [EC40pot. mol/l], expressed by the negative logarithm of the [EC40pot mol/l]: -lg[EC40pot ] serves as a measure of the cardiotonic activity.

[3] = test system: guinea pig hearts isolated and perfused by the Langendorff method; assay: left-ventricular pressure and heart rate in isolated perfused Langendorff hearts; conditions: for Emax: Cavia porcellus; for EC20 left-ventricular pressure: dose which leads to a 20% increase in left ventricular pressure
Source text: After the animals have been sacrificed by a blow to the neck and exsanguination through the carotid arteries, the thoracic cavity is opened, and the aorta is exposed and looped up with a thread. A cannula, which is attached by tubing to the apparatus from which the nutrient solution slowly drops, is introduced in the direction of the heart and the heart is, quickly after removal from the thorax, connected to the perfusion apparatus. A balloon probe, connected to a Statham pressure sensor, is advanced through a cut through the left atrium into the left ventricle, and is provided with an initial pressure of 40 mm Hg. […] The nutrient solution flowing freely from the coronary sinus into the right atrium is measured with a flow […]) and, together with the change in the left-ventricular pressure and the heart rate determined from this, is recorded on a Watanabe recorder. The substances are administered in a volume of 0.1 ml of nutrient solution, in the dosage indicated in Tab.

[4] = toxicity studies, mouse p.o.; conditions: in vivo, po; for LD50 at 168 h: Column F, mouse p.o., 7 days observation, read-out: Approximate LD50
Description: The toxicity studies are carried out on female NMRI mice (body weight 23-30 g). The animals (5 animals per dose) receive food and water ad libitum. Various doses of the substances are administered once as a suspension in methocel via a gavage. The period of observation lasts 7 days. The tolerated dose (TD), that is to say the highest dose at which as yet none of the animals die, is determined by observation. The average lethal dose (LD50), that is to say the dose at which 50% of the animals die, is determined from the dose/action curve by means of linear regression.

[5] = test system: chain of tracheal rings of guinea pigs; assay: relaxing action on chain of tracheal rings in vitro (bronchospasmolytic action); set-up: species or system guinea pig; conditions: for EC50: Cavia porcellus, Column A, negative logarithm of EC50 in mol/l, 50% of maximum relaxation by (-)isoprenaline, read-out: -lg[EC50] trachea (converted); for [EC40 pot.] left atrium / [EC50] trachea: Column C, measure of organ-selective activity; for [EC50] theophylline / [EC50] substance: Column D, trachea
Description: The relaxing action of the 6-aryl-3[2H]pyridazinones I has been tested in vitro on a chain of tracheal rings (Tr.) of guinea pigs. […] The quotient of [EC40pot. ]left atrium and [ED50 ]trachea serves as a measure of the organ-selective activity.
The bronchospasmolytic action of the compounds on the chain of tracheal rings of the guinea pig was tested in vitro:
Four parallel chains of tracheal rings, each consisting of 6 individual rings, of guinea pigs(.male. and .female., 430-600 g) in an organ bath [5 ml, Krebs-Henseleit solution with added phentolamine (10^-5 mol/l), 37° C., initial tension of the organs 2 g, gassing with carbogen] develop a stable, spontaneous tonic contraction after about 20 to 30 minutes. […] Over a period of 20 to 30 minutes, a complete dose/action curve of the test substance is thus obtained. The particular relaxation is expressed as a percentage fraction of the maximum relaxation which can be achieved by administration of (-)isoprenaline (10^-6 mol/1). The concentration of the test substance which causes 50% of the maximum relaxation which can be achieved, expressed by the negative logarithm of the EC50 mol/l: -lg[EC50 ]is a measure of the bronchodilator activity.

[6] = test system: acetylcholine-induced bronchospasm; assay: protective effect against acetylcholine-induced bronchospasm in conscious guinea pigs; assay type: in vivo, guinea pig; conditions: for Doubling of the latency period / Tripling of the latency period: 30 min; for Tripling of the latency period: figure in parentheses
Description: The figure in parentheses indicates the number out of 10 animals in which the latency period more than tripled.
The latency period is to be understood to be the time from the start of acetylcholine-atomization until clear signs of asthma appeared.
The time from the start of atomization to the onset of clear respiratory exertion (in certain circumstances, hypoxic convulsion in the lateral position) is measured, and is denoted the latency period.
The test substance is administered orally by gavage (standard dose 100 μmol/kg, volume 1 ml of 4% strength methocel suspension in 0.9% strength sodium chloride solution/kg). […] Prolongation of the latency period to at least twice its length is regarded as a protective effect.

[7] = test system: histamine-induced bronchospasm; assay: inhibition of histamine-induced bronchospasm in anesthetized guinea pigs; assay type: in vivo, guinea pig; conditions: for inhibition of histamine-induced bronchospasm, TVi / inhibition of histamine-induced bronchospasm, Vmaxe / inhibition of histamine-induced bronchospasm, Vmaxi: 20 μmol/kg i.v.
Description: A method for simultaneously recording pharmacodynamic and toxic effects on internal sensitive receptors, on the respiration and the cardiovascular system of guinea pigs was used [U. Kilian, E. Muller, E. Ch. […] To characterize the bronchospasm induced by histamine (0.09-0.18 μmol /kg i.v.), the maximum flow rate of the respiratory air during inspiration (Vmaxi) and expiration (Vmaxe) and the breath volume (BVi) were measured. A histamine spasm before administration of the substance was compared with several histamine spasms after administration of the substance. The test substances were administered intravenously (i.v.) and/or intrajejunally (i.j.). 5 to 10 animals were used per measurement, and the arithmetic mean was calculated from the results.

[8] = after 500 nMol, read-out: Emax left-ventricular pressure
[9] = at Emax, 500 nMol, read-out: Percentage increase in heart rate at Emax

CCCOc1cc(-c2ccc(=O)[nH]n2)ccc1OC [Serial No. 10, 6-(4-methoxy-3-n-propoxyphenyl)-3[2H]pyridazinone]
Percentage change in dP/dtmax ([1]; 0.3 μmol/kg i.v., 0-10 min (Maximum)): 42% | Percentage change in dP/dtmax ([1]; 0.3 μmol/kg i.v., 10 min): 16% | Percentage change in dP/dtmax ([1]; 0.3 μmol/kg i.v., 30 min): 21% | Percentage change in dP/dtmax ([1]; 1 μmol/kg i.v., 0-10 min (Maximum)): 97% | Percentage change in dP/dtmax ([1]; 1 μmol/kg i.v., 10 min): 45% | Percentage change in dP/dtmax ([1]; 1 μmol/kg i.v., 30 min): 46% | Percentage change in dP/dtmax ([1]; 3 μmol/kg i.v., 0-10 min (Maximum)): 164% | Percentage change in dP/dtmax ([1]; 3 μmol/kg i.v., 10 min): 90% | Percentage change in dP/dtmax ([1]; 3 μmol/kg i.v., 30 min): 66% | [EC40 pot.] theophylline / [EC40 pot.] substance [2]: 661 | EC40 [2]: 0.631 µM | Emax [3, 8]: 61% | Emax [3, 9]: 19% | Percentage increase in heart rate at EC20 [3]: 9% | EC20 left-ventricular pressure [3]: 40 nmol | LD50 at 168 h [4]: 770 mg/kg | EC50 [5]: 0.468 µM | [EC40 pot.] left atrium / [EC50] trachea [5]: 1.3 | [EC50] theophylline / [EC50] substance [5]: 288 | Doubling of the latency period ([6]; 100 μmol/kg p.o.): 6 N of 10 animals | Tripling of the latency period ([6]; 100 μmol/kg p.o.): 6 N of 10 animals | Doubling of the latency period ([6]; 300 μmol/kg p.o.): 10 N of 10 animals | Tripling of the latency period ([6]; 300 μmol/kg p.o.): 8 N of 10 animals | protective effect compared with theophylline ([6]; result in words): greater protective effect

COc1ccc(-c2ccc(=O)[nH]n2)cc1OC(C)C [Serial No. 11, 6-(4-methoxy-3-isopropoxyphenyl)-3[2H]pyridazinone]
EC40 [2]: > 1000 µM | LD50 at 168 h [4]: 600 mg/kg | EC50 [5]: 0.0977 µM | [EC40 pot.] left atrium / [EC50] trachea [5]: 10000 | [EC50] theophylline / [EC50] substance [5]: 1370 | inhibition of histamine-induced bronchospasm, TVi ([7]; 2 min): 117% | inhibition of histamine-induced bronchospasm, Vmaxe ([7]; 2 min): 123% | inhibition of histamine-induced bronchospasm, Vmaxi ([7]; 2 min): 152% | inhibition of histamine-induced bronchospasm, TVi ([7]; 10 min): 84% | inhibition of histamine-induced bronchospasm, Vmaxe ([7]; 10 min): 109% | inhibition of histamine-induced bronchospasm, Vmaxi ([7]; 10 min): 113% | inhibition of histamine-induced bronchospasm, TVi ([7]; 20 min): 54% | inhibition of histamine-induced bronchospasm, Vmaxe ([7]; 20 min): 63% | inhibition of histamine-induced bronchospasm, Vmaxi ([7]; 20 min): 89% | inhibition of histamine-induced bronchospasm, TVi ([7]; 30 min): 38% | inhibition of histamine-induced bronchospasm, Vmaxe ([7]; 30 min): 43% | inhibition of histamine-induced bronchospasm, Vmaxi ([7]; 30 min): 47% | inhibition of histamine-induced bronchospasm, TVi ([7]; 60 min): 5% | inhibition of histamine-induced bronchospasm, Vmaxe ([7]; 60 min): 6% | inhibition of histamine-induced bronchospasm, Vmaxi ([7]; 60 min): 9% | inhibition of histamine-induced bronchospasm compared with theophylline ([7]; result in words): significantly more effective than theophylline

CCCOc1ccc(-c2ccc(=O)[nH]n2)cc1OC [compound 2]
EC40 [2]: 7.24 µM | Emax ([3]; after 300 nMol, read-out: Emax left-ventricular pressure): 59% | Emax ([3]; at Emax, 300 nMol, read-out: Percentage increase in heart rate at Emax): 13% | LD50 at 168 h [4]: 530 mg/kg | EC50 [5]: 0.417 µM

CCOc1cc(-c2ccc(=O)[nH]n2)ccc1OC [compound 8]
[EC40 pot.] theophylline / [EC40 pot.] substance [2]: 316 | EC40 [2]: 1.32 µM | LD50 at 168 h [4]: 550 mg/kg | EC50 [5]: 0.339 µM | [EC40 pot.] left atrium / [EC50] trachea [5]: 3.9 | [EC50] theophylline / [EC50] substance [5]: 398

C=CCOc1cc(-c2ccc(=O)[nH]n2)ccc1OC [compound 9]
[EC40 pot.] theophylline / [EC40 pot.] substance [2]: 331 | EC40 [2]: 1.26 µM | Emax [3, 8]: 53% | Emax [3, 9]: 21% | Percentage increase in heart rate at EC20 [3]: 7% | EC20 left-ventricular pressure [3]: 50 nmol | LD50 at 168 h [4]: 610 mg/kg | EC50 [5]: 0.537 µM | [EC40 pot.] left atrium / [EC50] trachea [5]: 2.3 | [EC50] theophylline / [EC50] substance [5]: 251

COc1ccc(-c2ccc(=O)[nH]n2)cc1OCCC(C)C [compound 12]
EC40 [2]: > 1000 µM | LD50 at 168 h [4]: 960 mg/kg | EC50 [5]: 0.501 µM | [EC40 pot.] left atrium / [EC50] trachea [5]: 2000 | [EC50] theophylline / [EC50] substance [5]: 269

COc1ccc(-c2ccc(=O)[nH]n2)cc1 [compound 19]
[EC40 pot.] theophylline / [EC40 pot.] substance [2]: 4.7 | EC40 [2]: 170 µM | Emax ([3]; after 1000 nMol, read-out: Emax left-ventricular pressure): 45% | Emax ([3]; at Emax, 1000 nMol, read-out: Percentage increase in heart rate at Emax): 11% | Percentage increase in heart rate at EC20 [3]: 6% | EC20 left-ventricular pressure [3]: 160 nmol | tolerated dose ([4]; mouse, 10080 min): > 400 | EC50 [5]: 8.91 µM | [EC40 pot.] left atrium / [EC50] trachea [5]: 19.1 | [EC50] theophylline / [EC50] substance [5]: 15.1

— patent US4707481A, “Pyridazinones, their preparation and use, and bronchospasmolytic medicaments containing pyridazinones” (BYK Gulden Lomberg Chemische Fabrik GmbH, priority 1983, dated 1987)
